Reference: publication PMC5405074, “Receptor-Mediated Melanoma Targeting with Radiolabeled α-Melanocyte-Stimulating Hormone: Relevance of the Net Charge of the Ligand” (Frontiers in Endocrinology, 2017)
Like-named read-outs stand apart in the source and are kept apart here. Marks after values point to notes of the source that are not given here. Non-standard residues stand in square brackets, D forms with d. Residues, ends and D or L forms follow the SMILES beside them. *: point of attachment. DOTA = O=C(O)CN1CCN(CC(=O)O)CCN(CC(=O)*)CCN(CC(=O)O)CC1; Nle = CCCC[C@H](N)C(=O)O

Tests used:
[1] = Biodistribution of ^111In-labeled peptides in B16-F1 melanoma-bearing mice; format: in vivo, mouse (B6D2F1); details: female, iv, total radioactivity, ^111In-labeled peptide, 185 kBq i.v., mean ± SEM of three experiments, n = 5 animals each
In short: (§1)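 B16-F1 cells (about 5 × 10^5) grown s.c. in female B6D2F1 mice; 7 days later 185 kBq ^111In-labeled peptide injected i.v. Tissues collected at 4, 24 and 48 h and γ-counted, uptake given as %ID/g (mean ± SEM); non-specific uptake from co-injection of 50 µg α-MSH. Urine metabolites analysed by RP-HPLC/γ-detection.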

[2] = system: B16-F1 tumor-bearing mice; assay: as above; format: in vivo, mouse (B6D2F1); details: in vivo
In short: as §1

[3] = system: B16-F1 cells; assay: In situ melanin assay in B16-F1 cells; format: cell-based, mouse; details: for Reduction of biological activity compared to DOTA-NAP-amide: melanin assay
Protocol: The biological activity of the α-MSH derivatives was assessed with an in situ melanin assay ([40]). Briefly, B16-F1 cells (2,500 cells per well in 100 µL) were distributed into 96-well flat-bottom cell culture plates. MEM without phenol red, supplemented with 10% heat-inactivated fetal calf serum, 2 mM L-glutamine, 0.31 mmol/L L-tyrosine, 1% non-essential amino acids, 1% vitamin solution, 50 IU/mL penicillin, and 50 µg/mL streptomycin, was used as culture medium. After overnight incubation at cell culture conditions mentioned above, concentrations of α-MSH derivatives ranging from 1 × 10^−8 to 1 × 10^−12 in 100-µL volumes were added (in threefold dilution steps), and the incubation was continued for an additional 72 h. Melanin production was quantified by determining the absorbance at 310 nm in a microplate reader.

[4] = molecular target: T1, MC1R (HBL cells) (Homo sapiens, UniProt Q01726); assay: Competition binding assay with [^125I]-NDP-MSH, human HBL melanoma cells; details: HBL cells
T1 construct: endogenous in cells; host or cells: human HBL melanoma cell line
Protocol: (§2) Triplicates of 100-µL volumes of B16-F1 or HBL cell suspensions adjusted to 4 × 10^6/mL were incubated in 96-well U-bottom microplates (Falcon 3077). The binding medium consisted of MEM with Earle’s salts, 0.2% BSA, and 0.3 mM 1,10-phenanthroline. This binding medium was called mouse binding medium (MBM). Triplicates of competitor peptide solution (50 µL) yielding final concentrations ranging from 1 × 10^−6 to 1 × 10^−12 M were added. [^125I]NDP-MSH (50,000 cpm) in 50 µL was finally added to each well. The plates were incubated at 15°C for 3 h for B16-F1 cells and at 37°C for 2 h for HBL cells. The incubation was stopped by covering the plates with ice for 10 min. A cell harvester was used to collect cell-bound radioactivity on filters (Packard Unifilter-96 GF/B). The collected radioactivity was counted on a TopCount scintillation counter (Packard) after addition of 50 µL Microscint-20 scintillation cocktail (Perkin Elmer). The IC50 values were calculated with the Prism 6 software (GraphPad Software Inc., San Diego CA, USA).
(§3) The binding affinity of the peptides to MC1R was assessed by competition binding assays using [^125I]-NDP-MSH as radioligand and both murine B16-F1 and human HBL cells.

[5] = molecular target: T2, MC1R (B16-F1 cells) (Mus musculus, UniProt Q01727); assay: Competition binding assay with [^125I]-NDP-MSH, mouse B16-F1 melanoma cells; details: B16-F1 cells
T2 construct: endogenous in cells; host or cells: mouse B16-F1 melanoma cells
Protocol: as §2, §3

[6] = B6D2F1 (C57BL/6 × DBA/2F1 hybrids), mouse, blood, read-out: Blood uptake
[7] = B6D2F1 (C57BL/6 × DBA/2F1 hybrids), mouse, muscle, read-out: Muscle uptake
[8] = B6D2F1 (C57BL/6 × DBA/2F1 hybrids), mouse, skin, read-out: Skin uptake
[9] = B6D2F1 (C57BL/6 × DBA/2F1 hybrids), mouse, tumor, read-out: Tumor uptake
[10] = B6D2F1, mouse, bone, read-out: Bone uptake
[11] = B6D2F1, mouse, heart, read-out: Heart uptake
[12] = B6D2F1, mouse, kidney, read-out: Kidney uptake
[13] = B6D2F1, mouse, liver, read-out: Liver uptake
[14] = B6D2F1, mouse, lung, read-out: Lung uptake
[15] = B6D2F1, mouse, pancreas, read-out: Pancreas uptake
[16] = B6D2F1, mouse, small intestines, read-out: Small intestines uptake
[17] = B6D2F1, mouse, spleen, read-out: Spleen uptake
[18] = B6D2F1, mouse, stomach, read-out: Stomach uptake

T1 sequence (Q01726 whole entry): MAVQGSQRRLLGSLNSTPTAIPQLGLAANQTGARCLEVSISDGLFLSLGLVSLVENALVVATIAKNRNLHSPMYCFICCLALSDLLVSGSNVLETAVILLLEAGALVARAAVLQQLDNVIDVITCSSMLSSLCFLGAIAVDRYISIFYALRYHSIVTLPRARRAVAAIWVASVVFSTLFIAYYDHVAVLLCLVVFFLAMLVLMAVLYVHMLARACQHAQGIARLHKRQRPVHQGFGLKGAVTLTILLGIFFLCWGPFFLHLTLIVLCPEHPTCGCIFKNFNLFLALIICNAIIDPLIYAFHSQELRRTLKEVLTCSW
T2 sequence (Q01727 whole entry): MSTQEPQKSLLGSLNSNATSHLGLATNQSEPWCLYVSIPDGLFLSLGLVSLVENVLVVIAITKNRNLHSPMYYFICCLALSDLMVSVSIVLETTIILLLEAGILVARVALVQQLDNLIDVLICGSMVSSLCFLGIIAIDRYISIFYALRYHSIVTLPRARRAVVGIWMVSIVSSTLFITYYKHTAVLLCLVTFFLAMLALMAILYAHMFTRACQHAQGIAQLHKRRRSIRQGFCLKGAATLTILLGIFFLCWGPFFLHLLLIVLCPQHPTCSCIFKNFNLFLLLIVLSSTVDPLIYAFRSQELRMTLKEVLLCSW

CCCC[C@H](NC(C)=O)C(=O)N[C@@H](CC(=O)O)C(=O)N[C@@H](Cc1c[nH]cn1)C(=O)N[C@H](Cc1ccccc1)C(=O)N[C@@H](CCCNC(=N)N)C(=O)N[C@@H](Cc1c[nH]c2ccccc12)C(=O)NCC(=O)N[C@@H](CCCCNC(=O)CN1CCN(CC(=O)O)CCN(CC(=O)O)CCN(CC(=O)O)CC1)C(=O)N[C@H](CC(=O)O)C(=O)N[C@H](CC(=O)O)C(=O)O [DOTA-NAP-D-Asp-D-Asp, Ac-Nle-Asp-His-D-Phe-Arg-Trp-Gly-Lys(DOTA)-D-Asp-D-Asp-OH] (Ac-[Nle]DH[dF]RWGK(DOTA)[dD][dD]-OH)
tissue uptake at 4 h [1, 6]: 0.01 %ID/g
tissue uptake at 24 h [1, 6]: 0.01 %ID/g
tissue uptake at 48 h [1, 6]: 0.01 %ID/g
tissue uptake at 48 h ([1]; B6D2F1 (C57BL/6 × DBA/2F1 hybrids), mouse, bone, read-out: Bone uptake): 0.07 ± 0.01 %ID/g
tissue uptake at 4 h [1, 7]: 0.02 %ID/g
tissue uptake at 24 h [1, 7]: 0.02 %ID/g
tissue uptake at 48 h [1, 7]: 0.03 %ID/g
tissue uptake at 4 h [1, 8]: 0.06 ± 0.01 %ID/g
tissue uptake at 24 h [1, 8]: 0.06 %ID/g
tissue uptake at 48 h [1, 8]: 0.04 %ID/g
tissue uptake at 24 h [1, 9]: 0.63 ± 0.03 %ID/g
tissue uptake at 48 h [1, 9]: 0.23 ± 0.02 %ID/g
tissue uptake at 4 h [1, 10]: 0.07 ± 0.01 %ID/g
tissue uptake at 24 h [1, 10]: 0.06 ± 0.01 %ID/g
tissue uptake at 4 h [1, 11]: 0.03 %ID/g
tissue uptake at 24 h [1, 11]: 0.03 %ID/g
tissue uptake at 48 h [1, 11]: 0.03 %ID/g
tissue uptake at 24 h [1, 12]: 4.09 ± 0.16 %ID/g
tissue uptake at 48 h [1, 12]: 2.02 ± 0.08 %ID/g
tissue uptake at 4 h [1, 13]: 0.1 %ID/g
tissue uptake at 24 h [1, 13]: 0.09 %ID/g
tissue uptake at 48 h [1, 13]: 0.07 %ID/g
tissue uptake at 4 h [1, 14]: 0.06 %ID/g
tissue uptake at 24 h [1, 14]: 0.04 %ID/g
tissue uptake at 48 h [1, 14]: 0.03 %ID/g
tissue uptake at 4 h [1, 15]: 0.03 %ID/g
tissue uptake at 24 h [1, 15]: 0.02 %ID/g
tissue uptake at 48 h [1, 15]: 0.03 %ID/g
tissue uptake at 4 h [1, 16]: 0.05 ± 0.01 %ID/g
tissue uptake at 24 h [1, 16]: 0.04 ± 0.01 %ID/g
tissue uptake at 48 h [1, 16]: 0.03 %ID/g
tissue uptake at 4 h [1, 17]: 0.07 %ID/g
tissue uptake at 24 h [1, 17]: 0.07 %ID/g
tissue uptake at 48 h [1, 17]: 0.07 %ID/g
tissue uptake at 4 h [1, 18]: 0.11 %ID/g
tissue uptake at 24 h [1, 18]: 0.03 %ID/g
tissue uptake at 48 h [1, 18]: 0.02 %ID/g
Kidney uptake/retention compared with reference (in words) [2]: markedly increased
Tumor uptake lower than that of reference ([2]; melanoma tumors): ~ 4 fold
Reduction of biological activity compared to DOTA-NAP-amide [3]: > 10 fold
Reduction of biological activity compared to DOTA-NAP-amide ([3]; listed as DOTA-NAP by D-Asp-D-Asp): around 11 fold
Biological activity rEC50 [α-MSH = 1] ([3]; relative concentration vs. α-MSH (=1) inducing half-maximal melanin production by B16-F1 cells, 72 h, absorbance 310 nm, n = 3–13, ^c = P < 0.05 vs. DOTA-NAP-amide): 7.66 ± 0.33^c
Reduction of MC1R affinity compared to DOTA-NAP-amide [4]: ~ 10 fold
Reduction of MC1R affinity compared to DOTA-NAP-amide [5]: ~ 10 fold
